From article PMC12406253, “Exploration of the Neuromodulatory Properties of Fyn and GSK-3β Kinases Exploiting 7‑Azaindole-Based Inhibitors” (Journal of Medicinal Chemistry, 2025)
Counter-ions that a name gives are not always drawn.

What was measured:
[1] = molecular target: FYNα (Homo sapiens, UniProt P06241); test: FYNα kinase assay, LANCE Ultra TR-FRET; type: biochemical; conditions: for inhibition at 50 µM / Fyn % Inhibition @ 50 μM: mean ± SD, n.i. = no inhibition; for inhibition at 50 µM: read-out: Fyn % Inhibition @ 50 μM; for IC50: mean ± SD of at least three independent determinations, ATP near Km, read-out: Fyn IC50
Chain of FYNα (P06241 whole entry): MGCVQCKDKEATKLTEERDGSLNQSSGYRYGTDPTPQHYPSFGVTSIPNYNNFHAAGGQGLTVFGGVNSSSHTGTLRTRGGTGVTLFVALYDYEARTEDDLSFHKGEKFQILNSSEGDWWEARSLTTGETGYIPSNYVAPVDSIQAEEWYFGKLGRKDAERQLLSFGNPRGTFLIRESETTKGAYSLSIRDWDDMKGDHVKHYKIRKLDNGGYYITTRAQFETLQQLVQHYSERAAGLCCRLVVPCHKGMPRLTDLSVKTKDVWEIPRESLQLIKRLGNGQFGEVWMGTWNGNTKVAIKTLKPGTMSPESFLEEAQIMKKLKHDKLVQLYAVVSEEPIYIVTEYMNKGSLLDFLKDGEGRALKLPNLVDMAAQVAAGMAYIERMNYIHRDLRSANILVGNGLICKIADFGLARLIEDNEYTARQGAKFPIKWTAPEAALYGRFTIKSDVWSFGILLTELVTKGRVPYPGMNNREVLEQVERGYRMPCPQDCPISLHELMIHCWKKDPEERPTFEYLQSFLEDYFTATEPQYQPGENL
Protocol: (§1) GSK-3β and FYNα kinase assays were run in 384-well microplates (OptiPlate-384, White, PerkinElmer) in a total reaction volume of 20 μL. The inhibitory potency against human recombinant GSK-3β and FYNα (Carna Biosciences) was evaluated using the LANCE Ultra (PerkinElmer) time-resolved fluorescence resonance energy transfer (TR-FRET) by measuring the phosphorylation of the ULight-labeled substrate, according to the manufacturer’s instructions. The synthetic peptide surrounding Ser641 of human muscle glycogen synthase (ULight-GS (Ser641/pSer657)) and the synthetic 28-amino acid peptide containing eight Tyr residues placed in different amino acid contexts (ULightTM-TK (PT66)) were selected as specific substrates for GSK-3β and FYNα, respectively. Briefly, test compounds and staurosporine (reference compound) or DMSO (control) are mixed with the enzyme (GSK-3β: 2 nM and FYNα: 1 nM) in a buffer containing 50 mM HEPES (pH 7.5), 1 mM EGTA, 10 mM MgCl2, 2 mM DTT, and 0.01% Tween-20. […] Following incubation, the reaction is stopped by adding 6 mM EDTA. After 5 min, the antiphospho antibody labeled with europium chelate is added. After 1 more hour, the kinase reaction is monitored by irradiation at 320 nm and the fluorescence measured at 615 and 665 nm, using EnVision 2014 Multilabel Reader (PerkinElmer). The calculated signal ratio at 665/615 nm is proportional to the extent of ULight-substrate phosphorylation. The compounds were tested at 11 different concentrations ranging from 3 nM up to 100 μM in triplicate. […] The results were expressed as a percent inhibition of the control enzyme activity.
Dose–response curves were run in at least three independent experiments, performed in three technical replicates. IC50 values (concentrations causing half-maximal enzyme inhibition) were determined by nonlinear regression analysis of the Log[concentration]/response curves generated with mean replicate values using a four parameter Hill equation curve fitting with GraphPad Prism 8 (GraphPad Software Inc., CA-USA).

[2] = molecular target: human recombinant GSK-3β (Homo sapiens, UniProt P49841); test: GSK-3β kinase assay, LANCE Ultra TR-FRET; type: biochemical
Chain of human recombinant GSK-3β (P49841 whole entry): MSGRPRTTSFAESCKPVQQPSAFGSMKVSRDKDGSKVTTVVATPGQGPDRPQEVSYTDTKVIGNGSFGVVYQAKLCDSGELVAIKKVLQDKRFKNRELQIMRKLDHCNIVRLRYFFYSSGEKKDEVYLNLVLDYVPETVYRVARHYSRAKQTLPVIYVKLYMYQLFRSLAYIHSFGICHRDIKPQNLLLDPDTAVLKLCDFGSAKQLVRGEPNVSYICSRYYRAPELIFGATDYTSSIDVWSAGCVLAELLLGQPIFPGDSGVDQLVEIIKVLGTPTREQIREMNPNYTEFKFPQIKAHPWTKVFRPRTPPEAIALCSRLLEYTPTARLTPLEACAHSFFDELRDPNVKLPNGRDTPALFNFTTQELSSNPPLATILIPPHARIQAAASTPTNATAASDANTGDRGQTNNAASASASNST
Protocol: as §1, with “manufacturer's” for “manufacturer’s”, “The synthetic peptide surrounding Ser641 of human muscle glycogen synthase (ULight-GS (Ser641/pSer657)) and the synthetic 28-amino acid peptide containing eight Tyr residues placed in different amino acid contexts (ULightTM-TK (PT66)) were selected as specific substrates for GSK-3β and FYNα, respectively.” left out, “activity. Dose-response curves were run in at least three independent experiments, performed in three technical replicates. IC50 values (concentrations causing half-maximal enzyme inhibition) were determined by nonlinear regression analysis of the Log[concentration]/response curves generated with mean replicate values using a four parameter Hill equation curve fitting with GraphPad Prism 8 (GraphPad Software Inc., CA-USA).” for “activity.”

[3] = 50 μM, mean ± SD, n.i. = no inhibition

Structure (SMILES)	inhibition at 50 µM [2, 3] [%]	Fyn % Inhibition @ 50 μM [1]	IC50 [1] [µM]	further results
CNc1nc(-c2c[nH]c3ncccc23)cs1 [Compound 1, N-Methyl-4-(1H-pyrrolo[2,3-b]pyridin-3-yl)thiazol-2-amine Hydrobromide]	65.8			inhibition at 50 µM [1]: 22.3%
Br.CCCCNc1nc(-c2c[nH]c3ncccc23)cs1 [Compound 2, N-Butyl-4-(1H-pyrrolo[2,3-b]pyridin-3-yl)thiazol-2-amine Hydrobromide]	54.9	n.i.		
COCCNc1nc(-c2c[nH]c3ncccc23)cs1 [Compound 3, N-(2-Methoxyethyl)-4-(1H-pyrrolo[2,3-b]pyridin-3-yl)thiazol-2-amine Hydrobromide]	58.8			inhibition at 50 µM [1]: 41.7%
C=CCNc1nc(-c2c[nH]c3ncccc23)cs1 [Compound 4, N-Allyl-4-(1H-pyrrolo[2,3-b]pyridin-3-yl)thiazol-2-amine Hydrobromide]	61.6			inhibition at 50 µM [1]: 28.5%
Br.c1cnc2[nH]cc(-c3csc(NC4CCCCC4)n3)c2c1 [Compound 5, N-Cyclohexyl-4-(1H-pyrrolo[2,3-b]pyridin-3-yl)thiazol-2-amine Hydrobromide]	37.4	n.i.		
c1ccc(Nc2nc(-c3c[nH]c4ncccc34)cs2)cc1 [Compound 6, N-Phenyl-4-(1H-pyrrolo[2,3-b]pyridin-3-yl)thiazol-2-amine]				inhibition at 50 µM [1]: 40%
c1ccc(CNc2nc(-c3c[nH]c4ncccc34)cs2)cc1 [Compound 7, N-Benzyl-4-(1H-pyrrolo[2,3-b]pyridin-3-yl)thiazol-2-amine Hydrobromide]			2.04 ± 0.53	
Br.c1ccc2c(Nc3nc(-c4c[nH]c5ncccc45)cs3)cccc2c1 [Compound 8, N-(Naphthalen-1-yl)-4-(1H-pyrrolo[2,3-b]pyridin-3-yl)thiazol-2-amine Hydrobromide]	5.1	n.i.		
Clc1ccccc1Nc1nc(-c2c[nH]c3ncccc23)cs1 [Compound 9, N-(2-Chlorophenyl)-4-(1H-pyrrolo[2,3-b]pyridin-3-yl)thiazol-2-amine Hydrobromide]	32.7			inhibition at 50 µM [1]: 55%
c1ccc(Nc2nc(-c3c[nH]c4ncccc34)cs2)nc1 [Compound 10, N-(Pyridin-2-yl)-4-(1H-pyrrolo[2,3-b]pyridin-3-yl)thiazol-2-amine Hydrobromide]	24.1			inhibition at 50 µM [1]: 3.7%
Br.Cc1ccc(Nc2nc(-c3c[nH]c4ncccc34)cs2)cc1 [Compound 11, 4-(1H-Pyrrolo[2,3-b]pyridin-3-yl)-N-(p-tolyl)thiazol-2-amine Hydrobromide]	50.1	n.i.		
Br.COc1ccc(Nc2nc(-c3c[nH]c4ncccc34)cs2)cc1 [Compound 12, N-(4-Methoxyphenyl)-4-(1H-pyrrolo[2,3-b]pyridin-3-yl)thiazol-2-amine Hydrobromide]	34.6	n.i.		
Br.Clc1ccc(Nc2nc(-c3c[nH]c4ncccc34)cs2)cc1 [Compound 13, N-(4-Chlorophenyl)-4-(1H-pyrrolo[2,3-b]pyridin-3-yl)thiazol-2-amine Hydrobromide]	14.8	n.i.		
Br.O=[N+]([O-])c1ccc(Nc2nc(-c3c[nH]c4ncccc34)cs2)cc1 [Compound 14, N-(4-Nitrophenyl)-4-(1H-pyrrolo[2,3-b]pyridin-3-yl)thiazol-2-amine Hydrobromide]	8	n.i.		
CN(C)c1ccc(Nc2nc(-c3c[nH]c4ncccc34)cs2)cc1 [Compound 15, N ^1-(4-(1H-Pyrrolo[2,3-b]pyridin-3-yl)thiazol-2-yl)-N,^4 N ^4-dimethylbenzene-1,4-diamine Hydrobromide]				inhibition at 50 µM [1]: 11.4%
Nc1ccc(Nc2nc(-c3c[nH]c4ncccc34)cs2)cc1 [Compound 16]				inhibition at 50 µM [1]: 42.9%

Structure (SMILES)	inhibition at 50 µM [2, 3] [%]	Fyn % Inhibition @ 50 μM [1]	IC50 [1] [µM]	further results
COc1ccccc1CNc1nc(-c2c[nH]c3ncccc23)cs1 [Compound 17, N-(2-Methoxybenzyl)-4-(1H-pyrrolo[2,3-b]pyridin-3-yl)thiazol-2-amine Hydrobromide]			7.29 ± 1.03	
Clc1ccccc1CNc1nc(-c2c[nH]c3ncccc23)cs1 [Compound 18, N-(2-Chlorobenzyl)-4-(1H-pyrrolo[2,3-b]pyridin-3-yl)thiazol-2-amine Hydrobromide]			5.37 ± 1.29	
Clc1cccc(CNc2nc(-c3c[nH]c4ncccc34)cs2)c1 [Compound 19, N-(3-Chlorobenzyl)-4-(1H-pyrrolo[2,3-b]pyridin-3-yl)thiazol-2-amine Hydrobromide]			4.71 ± 0.55	
Br.Clc1ccc(CNc2nc(-c3c[nH]c4ncccc34)cs2)cc1 [Compound 20, N-(4-Chlorobenzyl)-4-(1H-pyrrolo[2,3-b]pyridin-3-yl)thiazol-2-amine Hydrobromide]		n.i.		
Fc1ccc(CNc2nc(-c3c[nH]c4ncccc34)cs2)cc1 [Compound 21, N-(4-Fluorobenzyl)-4-(1H-pyrrolo[2,3-b]pyridin-3-yl)thiazol-2-amine Hydrobromide]			7.1 ± 0.47	
Cc1ccc(CNc2nc(-c3c[nH]c4ncccc34)cs2)cc1 [Compound 22, N-(4-Methylbenzyl)-4-(1H-pyrrolo[2,3-b]pyridin-3-yl)thiazol-2-amine Hydrobromide]				inhibition at 100 µM ([2]; read-out: GSK-3β percentage of inhibition at the highest dose tested (100 μM)): 77.1%
O=[N+]([O-])c1ccc(CNc2nc(-c3c[nH]c4ncccc34)cs2)cc1 [Compound 24, N-(4-Nitrobenzyl)-4-(1H-pyrrolo[2,3-b]pyridin-3-yl)thiazol-2-amine Hydrobromide]			5.21 ± 0.51	
Nc1ccc(CNc2nc(-c3c[nH]c4ncccc34)cs2)cc1 [Compound 25]			18.5 ± 2.49	
c1cnc(CNc2nc(-c3c[nH]c4ncccc34)cs2)nc1 [Compound 29, N-(Pyrimidin-2-ylmethyl)-4-(1H-pyrrolo[2,3-b]pyridin-3-yl)thiazol-2-amine Hydrobromide]			15 ± 1.26	
c1cnc2[nH]cc(-c3csc(NCc4cnccn4)n3)c2c1 [Compound 30, N-(Pyrazin-2-ylmethyl)-4-(1H-pyrrolo[2,3-b]pyridin-3-yl)thiazol-2-amine Hydrobromide]			7.39 ± 0.37	
c1ccc(CCNc2nc(-c3c[nH]c4ncccc34)cs2)cc1 [Compound 31, N-Phenethyl-4-(1H-pyrrolo[2,3-b]pyridin-3-yl)thiazol-2-amine Hydrobromide]				IC50 ([2]; mean ± SD of at least three independent determinations, ATP near Km): 7.5 ± 1.29 µM
Br.O=C(Nc1nc(-c2c[nH]c3ncccc23)cs1)c1ccccc1 [Compound 32, N-(4-(1H-Pyrrolo[2,3-b]pyridin-3-yl)thiazol-2-yl)benzamide Hydrobromide]		n.i.		
Br.c1ccc(CNc2nc(-c3c[nH]c4ccccc34)cs2)cc1 [Compound 34]		n.i.		GSK-3β % Inhibition @ 50 μM [2, 3]: n.i.
Br.Clc1cccc2c(-c3csc(NCc4ccccc4)n3)c[nH]c12 [Compound 37]		n.i.		
Brc1cnc2[nH]cc(-c3csc(NCc4ccccc4)n3)c2c1 [Compound 38, N-Benzyl-4-(5-bromo-1H-pyrrolo[2,3-b]pyridin-3-yl)thiazol-2-amine Hydrobromide]			0.55 ± 0.02	
Cc1sc(NCc2ccccc2)nc1-c1c[nH]c2ncccc12 [Compound 39, N-Benzyl-5-methyl-4-(1H-pyrrolo[2,3-b]pyridin-3-yl)thiazol-2-amine Hydrobromide]			0.39 ± 0.11	
